Among the data in patent US9107413B2, “Pesticidal compositions and processes related thereto” (priority 2011, dated 2015) are mortality values, retold here.

Where two headings read alike, the source gives them in different places.

Holding throughout (format): in vivo
The subject of one test is CEW (Helicoverpa zea). The test can be described thus: Bioassay on corn earworm (CEW), 128-well diet tray assay. The settings on record: 168 h, read-out: % Mortality CEW 50 μg/cm^2. On the procedure: (§1) Certain molecules disclosed in this document were tested against BAW and CEW using procedures described in the following examples. In the reporting of the results, the “BAW & CEW Rating Table” was used (See Table Section).
Bioassays on CEW (Helicoverpa zea)
Bioassays on CEW were conducted using a 128-well diet tray assay. […] Trays were covered with a clear self-adhesive cover and held at 25° C., 14:10 light-dark for five to seven days. Percent mortality was recorded for the larvae in each well; activity in the eight wells was then averaged. The results are indicated in the table entitled “Table 5: Biological Results” (See Table Section).

Another test deals with BAW (Spodoptera exigua). Briefly: Bioassay on beet armyworm (BAW), 128-well diet tray assay. The settings on record: 168 h, read-out: % Mortality BAW 50 μg/cm^2. How it is done:
as §1
Bioassays on BAW (Spodoptera exigua)
Bioassays on BAW were conducted using a 128-well diet tray assay. […] Trays were covered with a clear self-adhesive cover and held at 25° C., 14:10 light-dark for five to seven days. Percent mortality was recorded for the larvae in each well; activity in the eight wells was then averaged. The results are indicated in the table entitled “Table 5: Biological Results” (See Table Section).

The subject of another test is GPA (Myzus persicae). Briefly: Bioassay on green peach aphid (GPA), foliar spray on cabbage seedlings. The settings on record: 72 h, read-out: % Mortality GPA 200 ppm. How it is done: Certain molecules disclosed in this document were tested against GPA using procedures described in the following example. In the reporting of the results, the “GPA Rating Table” was used (See Table Section).
Cabbage seedlings grown in 3-inch pots, with 2-3 small (3-5 cm) true leaves, were used as test substrate. The seedlings were infested with 20-50 GPA (wingless adult and nymph stages) one day prior to chemical application. Four pots with individual seedlings were used for each treatment. Test compounds (2 mg) were dissolved in 2 mL of acetone/methanol (1:1) solvent, forming stock solutions of 1000 ppm test compound. […] A hand-held aspirator-type sprayer was used for spraying a solution to both sides of […] leaves until runoff. Reference plants (solvent check) were sprayed with the diluent only containing 20% by volume of acetone/methanol (1:1) solvent. Treated plants were held in a holding room for three days at approximately 25° C. and ambient relative humidity (RH) prior to grading. Evaluation was conducted by counting the number of live aphids per plant under a microscope. […] Corrected % Control=100*(X−Y)/X • where • X=No. of live aphids on solvent check plants and • Y=No. of live aphids on treated plants
The results are indicated in the table entitled “Table 5: Biological Results” (See Table Section).

The mark [1] stands for this setting: 50 μg/cm^2 on artificial diet, second instar larvae, five to seven days, 25° C.
The mark [2] stands for this setting: 200 ppm foliar spray on cabbage seedlings, three days, Abbott corrected % control.

As for `Cc1cccc(C)c1/N=C(/N/N=C/c1ccc(-c2ncn(-c3ccc(OC(F)(F)F)cc3)n2)cc1)SCOC(=O)CNC(=O)OCc1ccccc1` [Compound 23C], the mortality at 50 µg/cm2 in the test on CEW (Helicoverpa zea) and with BAW (Spodoptera exigua) was 50 to 100% in each case. Also, in the test with GPA (Myzus persicae) (foliar), the mortality at 200 ppm came to 0%.
`CC1CCS/C(=N\N=C\c2ccc(-c3ncn(-c4ccc(OC(F)(F)F)cc4)n3)cc2)N1c1ccccc1OC(C)(F)F` (stereo not shown) [Compound 229C]: the mortality at 50 µg/cm2 in the test on CEW (Helicoverpa zea) (setting [1]) and with BAW (Spodoptera exigua) (setting [1]) was 50 to 100% each time.
Regarding `C/C(=N\N=C1/SCC(=O)N1c1ccccc1C(C)C)c1ccc(-c2ncn(-c3ccc(OC(F)(F)F)cc3)n2)cc1` [Compound 122C], the mortality at 50 µg/cm2 in the test with CEW (Helicoverpa zea) (setting [1]) and in the test with BAW (Spodoptera exigua) (setting [1]) was 50 to 100% each time.
In the case of `Cc1cccc(C)c1/N=C(/N/N=C/c1ccc(-c2ncn(-c3ccc(OC(F)(F)F)cc3)n2)cc1)SCC#C[Si](C)(C)C` [Compound 9C], the mortality at 50 µg/cm2 in the test on CEW (Helicoverpa zea) and in the test on BAW (Spodoptera exigua) was 50 to 100% in each case. In the test on GPA (Myzus persicae) (foliar), the mortality at 200 ppm is 0%.
Regarding `COc1cc(C)c(/N=C(/N/N=C/c2ccc(-c3ncn(-c4ccc(OC(F)(F)F)cc4)n3)cc2)SCC(=O)N2CCNCC2)c(C)c1` [Compound 65C], the mortality at 50 µg/cm2 with CEW (Helicoverpa zea) (setting [1]) and with BAW (Spodoptera exigua) (setting [1]) was 50 to 100% each time. In addition, the mortality at 200 ppm in the test on GPA (Myzus persicae) (setting [2]) fell in the range of 0 to 80%.
Take `COc1cc(C)c(/N=C(/N/N=C/c2ccc(-c3ncn(-c4ccc(OC(F)(F)F)cc4)n3)cc2)SCOC(=O)CNC(=O)OCc2ccccc2)c(C)c1` [Compound 28C]: the mortality at 50 µg/cm2 with CEW (Helicoverpa zea) and in the test with BAW (Spodoptera exigua) was 50 to 100% throughout. Moreover, the mortality at 200 ppm in the test with GPA (Myzus persicae) (foliar) was in the range of 0 to 80%.
As for `FC(F)Oc1ccccc1N1CCCS/C1=N\N=C\c1ccc(-c2ncn(-c3ccc(OC(F)(F)F)cc3)n2)cc1` [Compound 200C], the mortality at 50 µg/cm2 with CEW (Helicoverpa zea) (setting [1]) and with BAW (Spodoptera exigua) (setting [1]) was 50 to 100% in each case.
For the compound `Cc1cccc(Cl)c1N1/C(=N/N=C/c2ccc(-c3ncn(-c4ccc(OC(F)(F)F)cc4)n3)cc2)SCCC1C` (stereo not shown) [Compound 227C], the mortality at 50 µg/cm2 in the test with CEW (Helicoverpa zea) (setting [1]) and with BAW (Spodoptera exigua) (setting [1]) was 50 to 100% in each case.
`COc1cc(C)c(/N=C(\N/N=C/c2ccc(-c3ncn(-c4ccc(C(F)(F)F)cc4)n3)cc2)SCOC(=O)CNC(=O)OCc2ccccc2)c(C)c1` [Compound 45C]: the mortality at 50 µg/cm2 in the test on CEW (Helicoverpa zea) and with BAW (Spodoptera exigua) was 50 to 100% in each case.
On to `CC(C)c1ccccc1N1C(=O)CS/C1=N\N=C\c1ccc(-c2ncn(-c3ccc(OC(F)(F)F)cc3)n2)cc1` [Compound 73C], for which the mortality at 50 µg/cm2 with CEW (Helicoverpa zea) (setting [1]) and with BAW (Spodoptera exigua) (setting [1]) was 50 to 100% throughout. For the same compound, the mortality at 200 ppm with GPA (Myzus persicae) (setting [2]) lay in the range of 0 to 80%.
